Data taken from patent US20180045744A1, “N[…] DRUG CONCENTRATIONS IN ORAL FLUIDS AND TESTING FOR POTENTIAL NON-[…] DRUG TREATMENT REGIMEN” (Ameritox, LLC, priority 2015, published 2018).

Assay: Oral fluid testing: concentration of the primary metabolite (parent drug) in oral fluid of patients
Format: in vivo, human
Procedure: In some embodiments, the amount of a drug in a subject is determined by analyzing a fluid of the subject. The term “fluid” as used herein refers to oral fluid and any liquid or pseudo-liquid obtained from the oral cavity of the subject. Non-limiting examples include saliva, mucus, and the like. In an embodiment, the fluid is oral fluid.
Determining the amount of a drug in oral fluid of the subject may be accomplished by use of any method known to those skilled in the art. Non-limiting examples for determining the amount of a drug in fluid of a subject include fluorescence polarization immunoassay (“FPIA,” Abbott Diagnostics), mass spectrometry (MS), gas chromatography-mass spectrometry (GC-MS-MS), liquid chromatography-mass spectrometry (LC-MS-MS), and the like. In one embodiment, LC-MS-MS methods known to those skilled in the art are used to determine a raw level, amount or concentration of a drug in oral fluid of the subject. In one embodiment, a raw level or concentration of a drug in oral fluid of a subject is measured and reported as a ratio, percent, or in relationship to the amount of fluid. The amount of fluid may be expressed as a unit volume, for example, in L, mL, μL, pL, ounce, etc. In one embodiment, the raw amount of a drug in oral fluid of a subject may be expressed as an absolute level or value, for example, in g, mg, pg, ng, pg, etc.
(§1) The results (drug concentration of the primary metabolite), demographic information (gender, weight, height, and age), and the prescribed dosage of hydrocodone for fifty randomly selected patients—not included in the patient population used to design the models—were used to assess the validity and robustness of the models.
as §1, with “oxycodone” for “hydrocodone”

Structure (SMILES) | concentration of the primary metabolite (parent drug) in oral fluid (Example 1: subject, 180 lbs, 65 inches, 30 mg daily dose of hydrocodone) [ng/mL] | concentration of the primary metabolite (parent drug) in the oral fluid (Example 2: subject, 225 lbs, 69 inches, 40 mg daily dose of hydrocodone) [ng/m I] | concentration of the primary metabolite (parent drug) in the oral fluid (Example 3: subject, 254 lbs, 71 inches, 90 mg daily dose of oxycodone) [ng/mL] | concentration of the primary metabolite (parent drug) in the oral fluid (Example 4: subject, 113 lbs, 64 inches, 60 mg daily dose) [ng/mL]
COc1ccc2c3c1O[C@H]1C(=O)CC[C@H]4[C@@H](C2)N(C)CC[C@]314 [Hydrocodone, hydrocodone] | 34 | 101 | – | –
COc1ccc2c3c1O[C@H]1C(=O)CC[C@@]4(O)[C@@H](C2)N(C)CC[C@]314 [Oxycodone, oxycodone] | – | – | 429 | 50
